Values of other authors as cited in patent US20260295002A1, “GASTROINTESTINAL RETENTIVE FORMULATIONS OF ECHINOCANDINS” (The Cleveland Clinic Foundation, priority 2023, published 2026).
Counter-ions that a name gives are not always drawn.

Conditions: background statement

| Compound | oral bioavailability |
| --- | --- |
| CCC(C)CC(C)CCCCCCCCC(=O)N[C@H]1C[C@@H](O)[C@@H](NCCN)NC(=O)[C@@H]2[C@@H](O)CCN2C(=O)[C@H]([C@H](O)CCN)NC(=O)[C@H]([C@H](O)[C@@H](O)c2ccc(O)cc2)NC(=O)[C@@H]2C[C@@H](O)CN2C(=O)[C@H]([C@@H](C)O)NC1=O (some centres unmarked) [Caspofungin] | poor oral bioavailability |
| CC[C@H](C)C[C@H](C)CCCCCCCCC(=O)N[C@H]1C[C@@H](O)[C@@H](NCCN)NC(=O)[C@@H]2[C@@H](O)CCN2C(=O)[C@H]([C@H](O)CCN)NC(=O)[C@H]([C@H](O)[C@@H](O)c2ccc(O)cc2)NC(=O)[C@@H]2C[C@@H](O)CN2C(=O)[C@H]([C@@H](C)O)NC1=O [caspofungin acetate, 1-[(4R,5S)-5-[(2-aminoethyl)amino]-N2-(10,12-dimethyl-1-oxotetradecyl)-4-hydroxy-L-ornithine]-5-[(3R)-3-hydroxy-L-ornithine]pneumocandin B0 diacetate (salt)] | poor oral bioavailability |
